System: HCT116 colorectal cancer cells
Test: Cisplatin sensitization assay (96 h MTS cell viability);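 further: compound concentration needed to lower the IC50 of Cisplatin alone by a set fold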
Format: cell-based
Settings: Cisplatin sensitization value
Method in brief: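 HCT116 cells were dosed simultaneously with compound and cisplatin as a full matrix of 2-fold serial dilutions from 10 μM top final concentration. Incubation was 96 h at 37° C., 5% CO2, followed by 1 h with MTS reagent for the viability read-out. Sensitization values were binned into +++, ++ and + categories.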

Question: For `Nc1nn2cc(F)cnc2c1C(=O)Nc1cnccc1C1CCOC1` (centres unmarked) [I-C-75, 2-amino-6-fluoro-N-(4-(tetrahydrofuran-3-yl)pyridin-3-yl)pyrazolo[1,5-a]pyrimidine-3-carboxamide], which “Cisplatin Sensitization Assay” value is on record?
Answer: ++ (Compounds with a Cisplatin sensitization value >0.02 μM but <0.2 μM are marked with “++.”)

Question: How did the “Cisplatin Sensitization Assay” value turn out when `Nc1nn2cc(F)cnc2c1C(=O)Nc1cnccc1CN1CCCC1=O` [I-C-76, 2-amino-6-fluoro-N-(4-((2-oxopyrrolidin-1-yl)methyl)pyridin-3-yl)pyrazolo[1,5-a]pyrimidine-3-carboxamide] was run?
Answer: + (Compounds with a Cisplatin sensitization value >0.2 μM but <5 μM are marked with “+.”)

Question: How did the “Cisplatin Sensitization Assay” value turn out when `Cc1ncc(-c2ccncc2NC(=O)c2c(N)nn3cc(F)cnc23)n1C` [I-C-77, 2-amino-N-(4-(1,2-dimethyl-1H-imidazol-5-yl)pyridin-3-yl)-6-fluoropyrazolo[1,5-a]pyrimidine-3-carboxamide] was run?
Answer: +++ (Compounds with a Cisplatin sensitization value of <0.02 μM are marked with “+++.”)

Question: `Cc1ncn(C)c1-c1ccncc1NC(=O)c1c(N)nn2cc(F)cnc12` [I-C-78, 2-amino-N-(4-(1,4-dimethyl-1H-imidazol-5-yl)pyridin-3-yl)-6-fluoropyrazolo[1,5-a]pyrimidine-3-carboxamide] was tested. Which “Cisplatin Sensitization Assay” value did it give?
Answer: ++ (Compounds with a Cisplatin sensitization value >0.02 μM but <0.2 μM are marked with “++.”)

Question: How did the “Cisplatin Sensitization Assay” value turn out when `Cn1cncc1-c1c(F)cncc1NC(=O)c1c(N)nn2cc(F)cnc12` [I-C-79, 2-amino-6-fluoro-N-(5-fluoro-4-(1-methyl-1H-imidazol-5-yl)pyridin-3-yl)pyrazolo[1,5-a]pyrimidine-3-carboxamide] was run?
Answer: +++ (Compounds with a Cisplatin sensitization value of <0.02 μM are marked with “+++.”)

Question: `CCn1cncc1-c1ccncc1NC(=O)c1c(N)nn2cc(F)cnc12` [I-C-80, 2-amino-N-(4-(1-ethyl-1H-imidazol-5-yl)pyridin-3-yl)-6-fluoropyrazolo[1,5-a]pyrimidine-3-carboxamide] was tested. Which “Cisplatin Sensitization Assay” value did it give?
Answer: +++ (Compounds with a Cisplatin sensitization value of <0.02 μM are marked with “+++.”)

Question: With `COc1cncc(NC(=O)c2c(N)nn3cc(F)cnc23)c1-c1cncn1C` [I-C-81, 2-amino-6-fluoro-N-(5-methoxy-4-(1-methyl-1H-imidazol-5-yl)pyridin-3-yl)pyrazolo[1,5-a]pyrimidine-3-carboxamide] as the molecule, how does the “Cisplatin Sensitization Assay” value read?
Answer: +++ (Compounds with a Cisplatin sensitization value of <0.02 μM are marked with “+++.”)

Question: Which “Cisplatin Sensitization Assay” value does the source give for `COc1cncc(NC(=O)c2c(N)nn3cc(F)cnc23)c1-c1cccnc1` [I-C-82, 2-amino-6-fluoro-N-(5′-methoxy-[3,4′-bipyridin]-3′-yl)pyrazolo[1,5-a]pyrimidine-3-carboxamide] here?
Answer: +++ (Compounds with a Cisplatin sensitization value of <0.02 μM are marked with “+++.”)

Question: `COCCn1cncc1-c1ccncc1NC(=O)c1c(N)nn2cc(F)cnc12` [I-C-83, 2-amino-6-fluoro-N-(4-(1-(2-methoxyethyl)-1H-imidazol-5-yl)pyridin-3-yl)pyrazolo[1,5-a]pyrimidine-3-carboxamide] was tested. Which “Cisplatin Sensitization Assay” value did it give?
Answer: ++ (Compounds with a Cisplatin sensitization value >0.02 μM but <0.2 μM are marked with “++.”)

Question: How did the “Cisplatin Sensitization Assay” value turn out when `COc1cncc(NC(=O)c2c(N)nn3cc(F)cnc23)c1C1CC1` [I-C-84, 2-amino-N-(4-cyclopropyl-5-methoxypyridin-3-yl)-6-fluoropyrazolo[1,5-a]pyrimidine-3-carboxamide] was run?
Answer: ++ (Compounds with a Cisplatin sensitization value >0.02 μM but <0.2 μM are marked with “++.”)

Question: `CN1CCN(C(=O)C2CCN(c3ccncc3NC(=O)c3c(N)nn4cc(F)cnc34)CC2)CC1` [I-G-1, 2-amino-6-fluoro-N-(4-(4-(4-methylpiperazine-1-carbonyl)piperidin-1-yl)pyridin-3-yl)pyrazolo[1,5-a]pyrimidine-3-carboxamide] was tested. Which “Cisplatin Sensitization Assay” value did it give?
Answer: +++ (Compounds with a Cisplatin sensitization value of <0.02 μM are marked with “+++.”)

Question: Which “Cisplatin Sensitization Assay” value does the source give for `CN(C)C(=O)C1CCN(c2ccncc2NC(=O)c2c(N)nn3cc(F)cnc23)CC1` [I-G-2, 2-amino-N-(4-(4-(dimethylcarbamoyl)piperidin-1-yl)pyridin-3-yl)-6-fluoropyrazolo[1,5-a]pyrimidine-3-carboxamide] here?
Answer: +++ (Compounds with a Cisplatin sensitization value of <0.02 μM are marked with “+++.”)

Question: With `CN1CCN(C(=O)C2CCN(c3c(Cl)cncc3NC(=O)c3c(N)nn4cc(F)cnc34)CC2)CC1` [I-G-3, 2-amino-N-(5-chloro-4-(4-(4-methylpiperazine-1-carbonyl)piperidin-1-yl)pyridin-3-yl)-6-fluoropyrazolo[1,5-a]pyrimidine-3-carboxamide] as the molecule, how does the “Cisplatin Sensitization Assay” value read?
Answer: +++ (Compounds with a Cisplatin sensitization value of <0.02 μM are marked with “+++.”)

Question: With `CN1CCN(C(=O)C2CCN(c3c(F)cncc3NC(=O)c3c(N)nn4cc(F)cnc34)CC2)CC1` [I-G-4, 2-amino-6-fluoro-N-(5-fluoro-4-(4-(4-methylpiperazine-1-carbonyl)piperidin-1-yl)pyridin-3-yl)pyrazolo[1,5-a]pyrimidine-3-carboxamide] as the molecule, how does the “Cisplatin Sensitization Assay” value read?
Answer: +++ (Compounds with a Cisplatin sensitization value of <0.02 μM are marked with “+++.”)

Question: With `CN1CCN(C(=O)C2CCN(c3c(F)cncc3NC(=O)c3c(N)nn4cc(Cl)cnc34)CC2)CC1` [I-G-5, 2-amino-6-chloro-N-(5-fluoro-4-(4-(4-methylpiperazine-1-carbonyl)piperidin-1-yl)pyridin-3-yl)pyrazolo[1,5-a]pyrimidine-3-carboxamide] as the molecule, how does the “Cisplatin Sensitization Assay” value read?
Answer: +++ (Compounds with a Cisplatin sensitization value of <0.02 μM are marked with “+++.”)

Question: Which “Cisplatin Sensitization Assay” value does the source give for `CN1CCCN(C(=O)C2CCN(c3c(F)cncc3NC(=O)c3c(N)nn4cc(F)cnc34)CC2)CC1` [I-G-6, 2-amino-6-fluoro-N-(5-fluoro-4-(4-(4-methyl-1,4-diazepane-1-carbonyl)piperidin-1-yl)pyridin-3-yl)pyrazolo[1,5-a]pyrimidine-3-carboxamide] here?
Answer: +++ (Compounds with a Cisplatin sensitization value of <0.02 μM are marked with “+++.”)

Question: With `Nc1nn2cc(F)cnc2c1C(=O)Nc1cncc(F)c1N1CCC(C(=O)N2CCN3CCC2CC3)CC1` [I-G-7, N-(4-(4-(1,4-diazabicyclo[3.2.2]nonane-4-carbonyl)piperidin-1-yl)-5-fluoropyridin-3-yl)-2-amino-6-fluoropyrazolo[1,5-a]pyrimidine-3-carboxamide] as the molecule, how does the “Cisplatin Sensitization Assay” value read?
Answer: +++ (Compounds with a Cisplatin sensitization value of <0.02 μM are marked with “+++.”)

Question: With `Nc1nn2cc(F)cnc2c1C(=O)Nc1cncc(F)c1N1CCC(C(=O)N2CCC2)CC1` [I-G-8, 2-amino-N-(4-(4-(azetidine-1-carbonyl)piperidin-1-yl)-5-fluoropyridin-3-yl)-6-fluoropyrazolo[1,5-a]pyrimidine-3-carboxamide] as the molecule, how does the “Cisplatin Sensitization Assay” value read?
Answer: +++ (Compounds with a Cisplatin sensitization value of <0.02 μM are marked with “+++.”)

Question: With `CCN1CCN(C(=O)C2CCN(c3c(F)cncc3NC(=O)c3c(N)nn4cc(F)cnc34)CC2)CC1` [I-G-9, 2-amino-N-(4-(4-(4-ethylpiperazine-1-carbonyl)piperidin-1-yl)-5-fluoropyridin-3-yl)-6-fluoropyrazolo[1,5-a]pyrimidine-3-carboxamide] as the molecule, how does the “Cisplatin Sensitization Assay” value read?
Answer: +++ (Compounds with a Cisplatin sensitization value of <0.02 μM are marked with “+++.”)

Question: `Nc1nn2cc(F)cnc2c1C(=O)Nc1cncc(F)c1N1CCC(C(=O)N2CCN3CCCC3C2)CC1` (centres unmarked) [I-G-10, 2-amino-6-fluoro-N-(5-fluoro-4-(4-(octahydropyrrolo[1,2-a]pyrazine-2-carbonyl)piperidin-1-yl)pyridin-3-yl)pyrazolo[1,5-a]pyrimidine-3-carboxamide] was tested. Which “Cisplatin Sensitization Assay” value did it give?
Answer: +++ (Compounds with a Cisplatin sensitization value of <0.02 μM are marked with “+++.”)

Question: Which “Cisplatin Sensitization Assay” value does the source give for `CN(C)[C@@H]1CCN(C(=O)C2CCN(c3c(F)cncc3NC(=O)c3c(N)nn4cc(F)cnc34)CC2)C1` [I-G-11, (R)-2-amino-N-(4-(4-(3-(dimethylamino)pyrrolidine-1-carbonyl)piperidin-1-yl)-5-fluoropyridin-3-yl)-6-fluoropyrazolo[1,5-a]pyrimidine-3-carboxamide] here?
Answer: +++ (Compounds with a Cisplatin sensitization value of <0.02 μM are marked with “+++.”)

Question: `Nc1nn2cc(F)cnc2c1C(=O)Nc1cncc(F)c1N1CCC(C(=O)N2CCNCC2)CC1` [I-G-12, 2-amino-6-fluoro-N-(5-fluoro-4-(4-(piperazine-1-carbonyl)piperidin-1-yl)pyridin-3-yl)pyrazolo[1,5-a]pyrimidine-3-carboxamide] was tested. Which “Cisplatin Sensitization Assay” value did it give?
Answer: +++ (Compounds with a Cisplatin sensitization value of <0.02 μM are marked with “+++.”)

Question: With `Nc1nn2cc(F)cnc2c1C(=O)Nc1cncc(F)c1N1CCC(C(=O)N2CCN(C3CC3)CC2)CC1` [I-G-13, 2-amino-N-(4-(4-(4-cyclopropylpiperazine-1-carbonyl)piperidin-1-yl)-5-fluoropyridin-3-yl)-6-fluoropyrazolo[1,5-a]pyrimidine-3-carboxamide] as the molecule, how does the “Cisplatin Sensitization Assay” value read?
Answer: +++ (Compounds with a Cisplatin sensitization value of <0.02 μM are marked with “+++.”)

Question: With `CN1CCN(C(=O)C2CCN(c3c(F)cncc3NC(=O)c3c(N)nn4cc(F)cnc34)CC2)CC1(C)C` [I-G-15, 2-amino-6-fluoro-N-(5-fluoro-4-(4-(3,3,4-trimethylpiperazine-1-carbonyl)piperidin-1-yl)pyridin-3-yl)pyrazolo[1,5-a]pyrimidine-3-carboxamide] as the molecule, how does the “Cisplatin Sensitization Assay” value read?
Answer: +++ (Compounds with a Cisplatin sensitization value of <0.02 μM are marked with “+++.”)

Question: How did the “Cisplatin Sensitization Assay” value turn out when `CN(C)CCCN(C)C(=O)C1CCN(c2c(F)cncc2NC(=O)c2c(N)nn3cc(F)cnc23)CC1` [I-G-16, 2-amino-N-(4-(4-((3-(dimethylamino)propyl)(methyl)carbamoyl)piperidin-1-yl)-5-fluoropyridin-3-yl)-6-fluoropyrazolo[1,5-a]pyrimidine-3-carboxamide] was run?
Answer: +++ (Compounds with a Cisplatin sensitization value of <0.02 μM are marked with “+++.”)

Question: `CNCCCN(C)C(=O)C1CCN(c2c(F)cncc2NC(=O)c2c(N)nn3cc(F)cnc23)CC1` [I-G-17] was tested. Which “Cisplatin Sensitization Assay” value did it give?
Answer: + (Compounds with a Cisplatin sensitization value >0.2 μM but <5 μM are marked with “+.”)
